Experimental data: patent US6737383B1, “Herbicidal oxadiazolidines” (priority 1999, dated 2004)

Columns and labels:
[1] = tested on: giant foxtail; test: Test B pre/postemergence giant foxtail; type: in vivo, Setaria faberii
Outline: (§1)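 Test chemicals in a non-phytotoxic solvent mixture with surfactant were sprayed preemergence onto planted seeds and postemergence onto plants 2 to 18 cm tall (1- to 4-leaf stage). After twelve to sixteen days in a greenhouse, injury was visually rated against untreated controls from 0 (no effect) to 10 (complete control).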

[2] = tested on: morningglory; test: Test B pre/postemergence morningglory; type: in vivo, Ipomoea hederacea
Outline: as §1

[3] = tested on: rice; test: Test B flood test rice; type: in vivo, Oryza sativa
Outline: (§2)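 Each value is a visual injury score relative to controls, with 10 meaning complete control and 0 no effect. Evaluation took place twelve to sixteen days after the 2-leaf-stage plants were treated and kept in the greenhouse.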

[4] = tested on: duck salad; test: Test B flood test duck salad; type: in vivo, Heteranthera limosa
Outline: as §2

[5] = Postemergence, Rate 250 g/ha, scale 0 to 10, 0 no effect, 10 complete control
[6] = Postemergence, Rate 1000 g/ha, scale 0 to 10 (0 no effect, 10 complete control)
[7] = Preemergence, Rate 125 g/ha, scale 0 to 10 (0 no effect, 10 complete control)
[8] = Preemergence, Rate 250 g/ha, scale of 0 to 10 where 0 is no effect and 10 is complete control
[9] = Preemergence, Rate 500 g/ha, scale 0 (no effect) to 10 (complete control)
[10] = Rate 125 g/ha, Postemergence, scale 0 to 10, 0 no effect, 10 complete control
[11] = Rate 500 g/ha, Postemergence, 0 to 10 scale (0 no effect, 10 complete control)
[12] = Rate 1000 g/ha, Preemergence, scale 0 to 10 (0 no effect, 10 complete control)
[13] = Rate 125 g/ha, Postemergence section (flood test species), scale 0 to 10, 0 no effect, 10 complete control
[14] = Rate 500 g/ha, Postemergence section of Table B, 0 to 10 scale (0 no effect, 10 complete control)
[15] = flood test, listed under Postemergence, Rate 250 g/ha, scale 0 to 10, 0 no effect, 10 complete control
[16] = Postemergence, Rate 125 g/ha, scale 0 to 10, 0 is no effect, 10 is complete control
[17] = Preemergence, Rate 62 g/ha, scale of 0 to 10 where 0 is no effect and 10 is complete control
[18] = Preemergence, Rate 500 g/ha, scale of 0 to 10 where 0 is no effect and 10 is complete control
[19] = Rate 62 g/ha, Postemergence, scale 0 to 10 (0 no effect, 10 complete control)
[20] = Rate 250 g/ha, Postemergence, scale of 0 to 10 where 0 is no effect and 10 is complete control
[21] = Rate 500 g/ha, Postemergence, scale 0 to 10, 0 no effect, 10 complete control
[22] = Rate 62 g/ha, headed Pre-emergence (flood test species), scale 0 to 10 (0 no effect, 10 complete control)
[23] = Rate 125 g/ha, Pre-emergence, flood test species, scale 0 to 10 where 0 is no effect and 10 is complete control
[24] = Rate 250 g/ha, Pre-emergence, flood-test species, scale 0 to 10, 0 is no effect, 10 is complete control
[25] = Rate 500 g/ha, Pre-emergence, flood test species, scale 0 to 10 (0 no effect, 10 complete control)
[26] = Postemergence, Rate 125 g/ha, scale of 0 to 10 where 0 is no effect and 10 is complete control
[27] = Preemergence, Rate 125 g/ha, scale of 0 to 10 where 0 is no effect and 10 is complete control
[28] = Rate 250 g/ha, Postemergence, scale 0 to 10, 0 is no effect, 10 is complete control
[29] = Rate 500 g/ha, Postemergence, scale 0 to 10, 0 is no effect, 10 is complete control
[30] = Pre-emergence, Rate 1000 g/ha, scale 0 to 10 (0 no effect, 10 complete control)
[31] = Rate 125 g/ha, under heading Pre-emergence, flood test species, visual evaluation after twelve to sixteen days
[32] = Rate 250 g/ha, Pre-emergence (flood test species), scale 0 to 10, 0 is no effect, 10 is complete control
[33] = Rate 500 g/ha, Pre-emergence section of Table B, 0 to 10 scale (0 no effect, 10 complete control)
[34] = Rate 125 g/ha, Postemergence, scale of 0 to 10 where 0 is no effect and 10 is complete control

COc1ccc(-n2c(=O)on(C(=O)N(C3=CCOCC3)C(C)C)c2=O)cc1 [Compound 6]
5: Giant foxtail plant response rating [1, 11] | Morningglory plant response rating [2, 11]
9: Giant foxtail plant response rating [1, 9] | Plant response rating, Giant foxtail [1, 12]
2: Giant foxtail plant response rating [1, 10] | Morningglory plant response rating [2, 5]
7: Giant foxtail plant response rating [1, 6] | Morningglory plant response rating [2, 6]
4: Giant foxtail plant response rating [1, 5] | Plant response rating, Giant foxtail [1, 8]
0: Plant response rating, Morningglory [2, 7] | Plant response rating, Morningglory [2, 8] | Morningglory plant response rating [2, 9] | Morningglory plant response rating [2, 10] | Plant response rating, Morningglory [2, 12] | Rice plant response rating [3, 13] | Rice plant response rating [3, 14] | Rice plant response rating [3, 15] | Ducksalad plant response rating [4, 6] | Ducksalad plant response rating [4, 13] | Ducksalad plant response rating [4, 14] | Ducksalad plant response rating [4, 15]
3: Plant response rating, Giant foxtail [1, 7] | Rice plant response rating [3, 6]

CC(C)N(C(=O)n1oc(=O)n(C2CC3CCC2C3)c1=O)c1ccc(F)cc1F (stereo not drawn) [Compound 326]
7: Plant response rating, Morningglory [2, 16]
2: Giant foxtail plant response rating (0 to 10 scale) ([1]; Preemergence, Rate 125 g/ha) | Plant response rating, Giant foxtail [1, 21]
8: Giant foxtail plant response rating [1, 8]
0: Plant response rating, Giant foxtail [1, 16] | Giant foxtail plant response rating [1, 17] | Giant foxtail plant response rating [1, 19] | Plant response rating, Giant foxtail [1, 20] | Morningglory plant response rating [2, 17] | Morningglory plant response rating (0 to 10 scale) ([2]; Preemergence, Rate 125 g/ha) | Morningglory plant response rating [2, 8] | Morningglory plant response rating [2, 18] | Rice plant response rating [3, 22] | Rice plant response rating [3, 23] | Rice plant response rating [3, 24] | Rice plant response rating [3, 25] | Ducksalad plant response rating [4, 22] | Ducksalad plant response rating [4, 23] | Ducksalad plant response rating [4, 24] | Ducksalad plant response rating [4, 25]
10: Plant response rating, Morningglory [2, 21]
9: Giant foxtail plant response rating [1, 18]
5: Morningglory plant response rating [2, 19]

COC(=O)C(c1ccccc1)n1c(=O)on(C(=O)N(c2ccc(F)cc2)C(C)C)c1=O (stereo not drawn) [Compound 677]
4: Giant foxtail plant response rating [1, 29] | Morningglory plant response rating [2, 28]
5: Giant foxtail plant response rating [1, 6] | Plant response rating, Giant foxtail [1, 27]
2: Giant foxtail plant response rating [1, 28] | Morningglory plant response rating [2, 26]
7: Morningglory plant response rating [2, 29]
10: Plant response rating, Giant foxtail [1, 18] | Plant response rating, Giant foxtail [1, 12]
0: Giant foxtail plant response rating [1, 26] | Plant response rating, Morningglory [2, 27] | Plant response rating, Morningglory [2, 18] | Plant response rating, Morningglory [2, 12] | Rice plant response rating [3, 30] | Rice plant response rating (0 to 10 scale, 0 is no effect, 10 is complete control) [3, 31] | Rice plant response rating [3, 32] | Rice plant response rating [3, 33] | Ducksalad plant response rating [4, 30] | Ducksalad plant response rating (0 to 10 scale, 0 is no effect, 10 is complete control) [4, 31] | Ducksalad plant response rating [4, 32] | Ducksalad plant response rating [4, 33]

CC(C)N(C(=O)n1oc(=O)n(C2CCCCO2)c1=O)c1ccc(F)cc1 (stereo not drawn) [Compound 311]
0: Giant foxtail plant response rating [1, 17] | Giant foxtail plant response rating (0 to 10 scale) ([1]; Preemergence, Rate 125 g/ha) | Giant foxtail plant response rating [1, 8] | Giant foxtail plant response rating [1, 18] | Giant foxtail plant response rating [1, 19] | Giant foxtail plant response rating [1, 34] | Plant response rating, Giant foxtail [1, 20] | Morningglory plant response rating [2, 17] | Morningglory plant response rating (0 to 10 scale) ([2]; Preemergence, Rate 125 g/ha) | Morningglory plant response rating [2, 8] | Morningglory plant response rating [2, 18] | Morningglory plant response rating [2, 19] | Rice plant response rating [3, 22] | Rice plant response rating [3, 23] | Rice plant response rating [3, 24] | Rice plant response rating [3, 25] | Ducksalad plant response rating [4, 22] | Ducksalad plant response rating [4, 23] | Ducksalad plant response rating [4, 24] | Ducksalad plant response rating [4, 25]
8: Plant response rating, Morningglory [2, 20]
4: Morningglory plant response rating [2, 34]
